Experimental data: US20160368898A1, “2-PYRIDYLOXY-4-METHYL OREXIN RECEPTOR ANTAGONISTS” (MERCK SHARP & DOHME CORP., priority 2013, published 2016)

Columns and labels:
[1] = target: T1, human orexin-2 receptor (hOX2R) (Homo sapiens, UniProt O43614); assay: FLIPR Ca2+ Flux Assay, CHO cells expressing the human orexin-2 receptor; assay type: cell-based; details: agonist 70 pM Ala-6,12 human orexin-A
T1 construct: expressed in transfected cells; host or cells: CHO cells (grown under G418)
T1 sequence (O43614 1-444): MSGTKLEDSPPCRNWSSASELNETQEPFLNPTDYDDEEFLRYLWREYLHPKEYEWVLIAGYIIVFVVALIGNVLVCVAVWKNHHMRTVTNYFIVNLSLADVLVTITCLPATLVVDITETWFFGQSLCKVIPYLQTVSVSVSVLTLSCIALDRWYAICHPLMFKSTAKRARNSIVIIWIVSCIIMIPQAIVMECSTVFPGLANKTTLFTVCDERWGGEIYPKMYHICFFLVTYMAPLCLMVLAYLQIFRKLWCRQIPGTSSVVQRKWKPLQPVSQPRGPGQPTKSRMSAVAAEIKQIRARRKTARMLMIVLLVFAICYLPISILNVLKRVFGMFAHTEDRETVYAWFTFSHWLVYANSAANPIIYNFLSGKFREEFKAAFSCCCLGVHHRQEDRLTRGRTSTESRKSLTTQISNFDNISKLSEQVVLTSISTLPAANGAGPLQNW
Method: The utility of the compounds in accordance with the present invention as orexin receptor OX1R and/or OX2R antagonists may be readily determined without undue experimentation by methodology well known in the art, including the “FLIPR Ca^2+ Flux Assay” (Okumura et al., Biochem. Biophys. Res. Comm. 280:976-981, 2001). In a typical experiment the OX1 and OX2 receptor antagonistic activity of the compounds of the present invention was determined in accordance with the following experimental method. For intracellular calcium measurements, Chinese hamster ovary (CHO) cells expressing the rat orexin-1 receptor or the human orexin-2 receptor, are grown in Iscove's modified DMEM containing 2 mM L-glutamine, […], 1% hypoxanthine-thymidine supplement, 100 U/ml penicillin, 100 μg/ml streptomycin and 10% heat-inactivated fetal calf serum (FCS). The cells are seeded at 20,000 cells/well into Becton-Dickinson black 384-well clear bottom sterile plates coated with poly-D-lysine. All reagents were from GIBCO-Invitrogen Corp. The seeded plates are incubated overnight at 37° C. and 5% CO2. Ala-6,12 human orexin-A as the agonist is prepared as a 1 mM stock solution in 1% bovine serum albumin (BSA) and diluted in assay buffer (HBSS containing 20 mM HEPES, 0.1% BSA and 2.5 mM probenecid, pH7.4) for use in the assay at a final concentration of 70 pM. Test compounds are prepared as 10 mM stock solution in DMSO, then diluted in 384-well plates, first in DMSO, then assay buffer. On the day of the assay, cells are washed 3 times with 100 μl assay buffer and then incubated for 60 min (37° C., 5% CO2) in 60 μl assay buffer containing 1 μM Fluo-4AM ester, 0.02% pluronic acid, and 1% BSA. The dye loading solution is then aspirated and cells are washed 3 times with 100 μl assay buffer. 30 μl of that same buffer is left in each well. Within the Fluorescent Imaging Plate Reader (FLIPR, Molecular Devices), test compounds are added to the plate in a volume of 25 μl, incubated for 5 min and finally 25 μl of agonist is added. Fluorescence is measured for each well at 1 second intervals for 5 minutes and the height of each fluorescence peak is compared to the height of the fluorescence peak induced by 70 pM Ala-6,12 orexin-A with buffer in place of antagonist. For each antagonist, IC50 value (the concentration of compound needed to inhibit 50% of the agonist response) is determined. Alternatively, compound potency can be assessed by a radioligand binding assay (described in Bergman et. al. Bioorg. Med. Chem. Lett. 2008, 18, 1425-1430) in which the inhibition constant (Ki) is determined in membranes prepared from CHO cells expressing either the OX1 or OX2 receptor. The intrinsic orexin receptor antagonist activity of a compound which may be used in the present invention may be determined by these assays.

[2] = target: T2, hOX1R (Homo sapiens, UniProt O43613); assay: FLIPR Ca2+ Flux Assay, CHO cells expressing the orexin-1 receptor; assay type: cell-based; details: agonist 70 pM Ala-6,12 human orexin-A
T2 construct: expressed in transfected cells; host or cells: CHO cells (grown under G418)
T2 sequence (O43613 1-425): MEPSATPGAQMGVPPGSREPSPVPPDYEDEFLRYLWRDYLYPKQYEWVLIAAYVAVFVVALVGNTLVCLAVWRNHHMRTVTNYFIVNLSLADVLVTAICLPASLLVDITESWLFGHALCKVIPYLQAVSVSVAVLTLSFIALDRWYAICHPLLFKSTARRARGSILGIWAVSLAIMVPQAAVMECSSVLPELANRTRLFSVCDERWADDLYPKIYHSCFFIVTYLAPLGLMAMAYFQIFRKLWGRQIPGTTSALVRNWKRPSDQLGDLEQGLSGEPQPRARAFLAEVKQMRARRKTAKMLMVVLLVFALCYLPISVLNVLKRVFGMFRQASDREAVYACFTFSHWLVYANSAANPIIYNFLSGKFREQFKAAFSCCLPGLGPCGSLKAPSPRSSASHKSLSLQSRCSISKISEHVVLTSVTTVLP

IC50 [1] | IC50 [2] | SMILES
16 nM |  | Cc1ccnc(O[C@@H]2CC[C@@H](C)N(C(=O)c3ccccc3-n3nccn3)C2)c1 [Example 1, 4-Methyl-2-{[(3R,6R)-6-methyl-1-{[2-(2H-1,2,3-triazol-2-yl)phenyl]carbonyl}piperidin-3-yl]oxy}pyridine]
17 nM | 1480 nM | Cc1ccnc(O[C@@H]2CC[C@@H](C)N(C(=O)c3ccccc3-n3ncnn3)C2)c1 [Example 2, (2-(2H-Tetrazol-2-yl)phenyl)((2R,5R)-2-methyl-5-((4-methylpyridin-2-yl)oxy)piperidin-1-y1)methanone]
44 nM | 1670 nM | Cc1ccnc(O[C@@H]2CC[C@@H](C)N(C(=O)c3ccsc3-n3nccn3)C2)c1 [Example 3, 4-methyl-2-{[(3R,6R)-6-methyl-1-{[2-(2H-1,2,3-triazol-2-yl)thiophen-3-yl]carbonyl}piperidin-3-yl]oxy}pyridine]
28 nM | 875 nM | Cc1ccnc(O[C@@H]2CC[C@@H](C)N(C(=O)c3c(F)cccc3-n3nccn3)C2)c1 [Example 4, 2-{[(3R,6R)-1-{[2-fluoro-6-(2H-1,2,3-triazol-2-yl)phenyl]carbonyl}-6-methylpiperidin-3-yl]oxy}-4-methylpyridine]
29 nM | 1620 nM | Cc1ccnc(O[C@@H]2CC[C@@H](C)N(C(=O)c3ccc(Cl)cc3-n3nccn3)C2)c1 [Example 5, 2-{[(3R,6R)-1-{[4-chloro-2-(2H-1,2,3-triazol-2-yl)phenyl]carbonyl}-6-methylpiperidin-3-yl]oxy}-4-methylpyridine]
35 nM | 2290 nM | Cc1ccnc(O[C@@H]2CC[C@@H](C)N(C(=O)c3ccc(F)cc3-n3nccn3)C2)c1 [Example 6, 2-{[(3R,6R)-1-{[4-fluoro-2-(2H-1,2,3-triazol-2-yl)phenyl]carbonyl}-6-methylpiperidin-3-yl]oxy}-4-methylpyridine]
59 nM | 2340 nM | Cc1ccnc(O[C@@H]2CC[C@@H](C)N(C(=O)c3ccc(C)cc3-n3nccn3)C2)c1 [Example 7, 4-methyl-2-{[(3R,6R)-6-methyl-1-{[4-methyl-2-(2H-1,2,3-triazol-2-yl)phenyl]carbonyl}piperidin-3-yl]oxy}pyridine]
45 nM | 1770 nM | Cc1ccnc(O[C@@H]2CC[C@@H](C)N(C(=O)c3ncccc3-n3nccn3)C2)c1 [Example 9, 2-({(2R,5R)-2-methyl-5-[(4-methylpyridin-2-yl)oxy]piperidin-1-yl}carbonyl)-3-(2H-1,2,3-triazol-2-yl)pyridine]
28 nM | 1210 nM | Cc1ccnc(O[C@@H]2CC[C@@H](C)N(C(=O)c3ccccc3C3(C#N)CC3)C2)c1 [Example 10, 1-[2-({(2R,5R)-2-methyl-5-[(4-methylpyridin-2-yl)oxy]piperidin-1-yl}carbonyl)phenyl]cyclopropanecarbonitrile]
32 nM | 1050 nM | Cc1ccnc(O[C@@H]2CC[C@@H](C)N(C(=O)c3cc(F)ccc3-n3nccn3)C2)c1 [Example 11, 2-{[(3R,6R)-1-{[5-fluoro-2-(2H-1,2,3-triazol-2-yl)phenyl]carbonyl}-6-methylpiperidin-3-yl]oxy}-4-methylpyridine]
299 nM | 9510 nM | Cc1ccnc(O[C@@H]2CC[C@@H](C)N(C(=O)c3ccc(F)cc3-c3nc(C)no3)C2)c1 [Example 12, 2-{[(3R,6R)-1-{[4-fluoro-2-(3-methyl-1,2,4-oxadiazol-5-yl)phenyl]carbonyl}-6-methylpiperidin-3-yl]oxy}-4-methylpyridine]
26 nM | 964 nM | Cc1ccnc(O[C@@H]2CC[C@@H](C)N(C(=O)c3cccc(F)c3-n3nccn3)C2)c1 [Example 13, 2-{[(3R,6R)-1-{[3-fluoro-2-(2H-1,2,3-triazol-2-yl)phenyl]carbonyl}-6-methylpiperidin-3-yl]oxy}-4-methylpyridine]
73 nM | > 10000 nM | Cc1ccnc(O[C@@H]2CC[C@@H](C)N(C(=O)c3ccccc3CS(C)(=O)=O)C2)c1 [Example 14, 4-methyl-2-{[(3R,6R)-6-methyl-1-({2-[(methylsulfonyl)methyl]phenyl}carbonyl)piperidin-3-yl]oxy}pyridine]
226 nM | > 10000 nM | COCc1ccccc1C(=O)N1C[C@H](Oc2cc(C)ccn2)CC[C@H]1C [Example 15, 2-{[(3R,6R)-1-{[2-(methoxymethyl)phenyl]carbonyl}-6-methylpiperidin-3-yl]oxy}-4-methylpyridine]
40 nM | 3100 nM | Cc1ccnc(O[C@@H]2CC[C@@H](C)N(C(=O)c3nccnc3-c3ccccn3)C2)c1 [Example 16, 2-({(2R,5R)-2-methyl-5-[(4-methylpyridin-2-yl)oxy]piperidin-1-yl}carbonyl)-3-pyridin-2-ylpyrazine]
33 nM | 1750 nM | Cc1ccnc(O[C@@H]2CC[C@@H](C)N(C(=O)c3cccnc3-n3cc(C)cn3)C2)c1 [Example 17, 3-({(2R,5R)-2-methyl-5-[(4-methylpyridin-2-yl)oxy]piperidin-1-yl}carbonyl)-2-(4-methyl-1H-pyrazol-1-yl)pyridine]
106 nM | 7030 nM | Cc1ccnc(O[C@@H]2CC[C@@H](C)N(C(=O)c3ncccc3-c3noc(C)n3)C2)c1 [Example 18, 2-({(2R,5R)-2-methyl-5-[(4-methylpyridin-2-yl)oxy]piperidin-1-yl}carbonyl)-3-(5-methyl-1,2,4-oxadiazol-3-yl)pyridine]
27 nM | 980 nM | Cc1ccnc(O[C@@H]2CC[C@@H](C)N(C(=O)c3ccccc3-c3ncccn3)C2)c1 [Example 19, ((2R,5R)-2-methyl-5-((4-methylpyridin-2-yl)oxy)piperidin-1-yl)(2-(pyrimidin-2-yl)phenyl)methanone]
42 nM | 1580 nM | Cc1ccnc(O[C@@H]2CC[C@@H](C)N(C(=O)c3ccc(F)cc3-c3ncccn3)C2)c1 [Example 20, 2-[5-fluoro-2-({(2R,5R)-2-methyl-5-[(4-methylpyridin-2-yl)oxy]piperidin-1-yl}carbonyl)phenyl]pyrimidine]
69 nM | 2110 nM | Cc1ccnc(O[C@@H]2CC[C@@H](C)N(C(=O)c3ccsc3-c3ncccn3)C2)c1 [Example 21, 2-[3-({(2R,5R)-2-methyl-5-[(4-methylpyridin-2-yl)oxy]piperidin-1-yl}carbonyl)thiophen-2-yl]pyrimidine]

SMILES | IC50 [1] | IC50 [2]
COc1ccc(C(=O)N2C[C@H](Oc3cc(C)ccn3)CC[C@H]2C)c(-n2nccn2)n1 [Example 8, 6-methoxy-3-({(2R,5R)-2-methyl-5-[(4-methylpyridin-2-yl)oxy]piperidin-1-yl}carbonyl)-2-(2H-1,2,3-triazol-2-yl)pyridine] | 117 nM | > 10000 nM
